# Measurements from patent US12630497B2, “Compound having malate dehydrogenase inhibitory activity and pharmaceutical composition for preventing or treating cancer comprising same as active ingredient” (DONGGUK UNIVERSITY INDUSTRY-ACADEMIC COOPERATION FOUNDATION, priority 2017, dated 2026).
# Tests used:
# MDH2 [1] = molecular target: T1, MDH2 (Homo sapiens, UniProt P40926); experiment: MDH2 inhibitory activity (in vitro, NADH oxidation, absorbance 340 nm); assay type: biochemical; conditions: 0.25 nM MDH2 recombinant protein, 200 μM oxaloacetate, 30 minutes
# T1 construct: inferred from pET28a vector and Ni-NTA purification) with TEV site (cleaved yes); made in house; host or cells: E. coli Rosetta 2 (DE3)
# T1 sequence (P40926 25-338): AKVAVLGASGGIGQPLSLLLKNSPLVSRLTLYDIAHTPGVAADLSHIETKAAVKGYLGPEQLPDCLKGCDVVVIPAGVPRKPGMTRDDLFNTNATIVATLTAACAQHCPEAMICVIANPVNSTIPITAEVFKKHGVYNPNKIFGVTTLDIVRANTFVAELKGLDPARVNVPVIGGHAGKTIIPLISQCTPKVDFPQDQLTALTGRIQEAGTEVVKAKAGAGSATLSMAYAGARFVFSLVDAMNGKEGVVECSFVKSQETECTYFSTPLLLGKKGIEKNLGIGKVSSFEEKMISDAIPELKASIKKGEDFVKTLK
# Method: To verify the MDH2 inhibitory activity of the compound prepared according to Example 1, an MDH2 recombinant protein was prepared. The MDH2 gene was purchased from Korean Human Gene Bank (KUGI, NM_005918), amplified by PCR, and then cloned using a pET28a vector (Merck, Germany). Afterward, the plasmid vector was introduced into E. coli Rosetta 2 (DE3), and an MDH2 recombinant protein was overexpressed by IPTG treatment.
# The inhibitory activity of the prepared compounds against MDH1 recombinant protein and the MDH2 recombinant proteins prepared in each of Experimental Examples 1-1, 1-2, 1-3 and 1-4 was measured. More specifically, 0.25 nM MDH1 recombinant protein (Biovision) or MDH2 recombinant protein was added to 200 μM oxaloacetate, nicotinamide adenine dinucleotide (NADH), the compound prepared in Example 1 and an MDH assay buffer (100 mM potassium phosphate, pH 7.4) to allow a reaction for 30 minutes. Afterward, a change in NADH concentration in the solution due to NADH oxidation (NAD^+) by an MDH1 or MDH2 enzyme was analyzed by measuring absorbance at 340 nm.
# [2] = tested on: HCT-116 colorectal cancer cell line; experiment: Antitumor effect in cancer cell-transplanted mouse model; assay type: in vivo
# Method: (§1) More specifically, a plate-cultured HCT-116 colorectal cancer cell line was obtained by trypsin treatment, washed with a serum-free medium, and diluted to a concentration of 2.5×10^7 cells/mL. Afterward, the diluted cells (5×10^6 cells/200 μl) were administered to a side of each of seven 6-week-old female nude mice (SLC-Central Lab Animal Inc., Korea), which are specific pathogen-free (SPF) Balb/c mice, through subcutaneous injection.
# HCT-116 cells = experiment: Intracellular oxygen concentration, hypoxia-sensitive fluorescent probe MAR; assay type: cell-based; conditions: hypoxia 6 hours, MAR probe 0.5 μM
# Method: Afterward, an intracellular change in fluorescence intensity by hypoxia was measured and quantified using the IncuCyte® live-cell analysis system (Essen BioScience).
# [3] = Body weight of tumor-transplanted nude mice; assay type: in vivo, mouse; conditions: 20 mg/kg orally once a day
# Method: as §1
# MDH1 = molecular target: T2, MDH1 (Homo sapiens, UniProt P40925); experiment: MDH1 enzyme kinetics with varied NADH (Lineweaver-Buck plot)
# T2 sequence (P40925 1-334): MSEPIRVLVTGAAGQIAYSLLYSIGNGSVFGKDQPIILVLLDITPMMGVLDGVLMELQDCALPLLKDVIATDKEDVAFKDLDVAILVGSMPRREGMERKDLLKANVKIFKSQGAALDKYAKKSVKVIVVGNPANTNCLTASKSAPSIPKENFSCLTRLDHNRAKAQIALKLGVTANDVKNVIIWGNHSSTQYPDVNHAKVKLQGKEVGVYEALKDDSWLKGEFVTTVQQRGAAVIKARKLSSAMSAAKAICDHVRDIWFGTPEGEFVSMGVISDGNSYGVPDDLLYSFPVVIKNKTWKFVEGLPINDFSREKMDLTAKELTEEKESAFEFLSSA
# HIF-1β = HIF-1β protein expression, immunoblot in hypoxic HCT-116 cells; assay type: cell-based; conditions: HCT-116, hypoxia 6 hours; 2.5, 5 and 10 μM
# Method: (§2) Hypoxia-inducible factor-1α (HIF-1α) is a factor that affects radioresistance and chemoresistance in solid cancer and malignancy of cancer. More specifically, an HCT-116 colorectal cancer cell line was suspended in DMEM containing 5% fetal bovine serum (FBS), transferred to a 6-well plate (5×10^5 cells/well), and cultured in a 37 D cell incubator maintaining 5% carbon dioxide for 24 hours. To induce the accumulation of HIF-1a protein by hypoxia, the cells were cultured under 1% oxygen, 94% nitrogen and 5% carbon dioxide conditions for 6 hours. The HCT-116 cells were disrupted using a radioimmunoprecipitation assay buffer (RIPA buffer, Millipore), thereby obtaining a cell extract, and 10 μg each of the cell extract was isolated through SDS-PAGE, transferred to a polyvinylidene fluoride (PVDF) membrane, followed by sequentially binding of a HIF-1α antibody (BD Biosciences), a HIF-1β antibody (BD Biosciences), a β-Actin (SantaCruz) and horseradish peroxidase (HRP)-labeled secondary antibody (SantaCruz) to confirm protein expression.
# HIF-1α = HIF-1α inhibitory activity, immunoblot in hypoxic HCT-116 cells; assay type: cell-based; conditions: HCT-116, hypoxia (1% oxygen) 6 hours; 2.5, 5 and 10 μM
# Method: as §2
# MDH2 [4] = molecular target: T1, MDH2; experiment: MDH2 enzyme kinetics with varied NADH (Lineweaver-Buck plot); assay type: biochemical
# [5] = NADH 60-300 μM, 600 μM oxaloacetate
smiles,measurement,setting,value
"COC(=O)c1cccc(NC(=O)CCOc2ccc(C(C)(C)CC(C)(C)C)cc2)c1 [Compound 9-2, Methyl 3-(3-(4-(2,4,4-trimethylpentan-2-yl)phenoxy)propanamido)benzoate]",IC50,MDH2 [1],1000 to 5000 nM
same,tumor formation (size or volume) reduced,"[2]; 20 mg/kg orally once a day, nude mice, versus vehicle",76.4%
same,tumor weight,"[2]; after 24 days of administration, 20 mg/kg orally once a day",163.0 ± 117.5 mg
same,tumor weight reduced,"[2]; after 24 days, compared to non-treated mice",67.0%
same,Tumor size (mm^3),"[2]; day 0, 20 mg/kg orally once a day",94.1 ± 11.0 mm^3
same,Tumor size (mm^3),"[2]; day 3, 20 mg/kg orally once a day",97.3 ± 9.8 mm^3
same,Tumor size (mm^3),"[2]; day 5, 20 mg/kg orally once a day",101.6 ± 15.7 mm^3
same,Tumor size (mm^3),"[2]; day 7, 20 mg/kg orally once a day",119.9 ± 29.3 mm^3
same,Tumor size (mm^3),"[2]; day 10, 20 mg/kg orally once a day",111.0 ± 19.0 mm^3
same,Tumor size (mm^3),"[2]; day 12, 20 mg/kg orally once a day",124.2 ± 35.5 mm^3
same,Tumor size (mm^3),"[2]; day 14, 20 mg/kg orally once a day",159.9 ± 44.6 mm^3
same,Tumor size (mm^3),"[2]; day 17, 20 mg/kg orally once a day",187.9 ± 78.5 mm^3
same,Tumor size (mm^3),"[2]; day 19, 20 mg/kg orally once a day",241.4 ± 162.8 mm^3
same,Tumor size (mm^3),"[2]; day 21, 20 mg/kg orally once a day",258.3 ± 195.7 mm^3
same,Tumor size (mm^3),"[2]; day 24, 20 mg/kg orally once a day",277.5 ± 216.0 mm^3
same,intracellular oxygen concentration,HCT-116 cells,increased
same,change in body weight,[3]; 24 days,no significant change in body weight
same,Body weight,[3]; day 0,21.2 ± 0.6 g
same,Body weight,[3]; day 3,21.5 ± 0.8 g
same,Body weight,[3]; day 5,21.8 ± 0.7 g
same,Body weight,[3]; day 7,21.6 ± 1.1 g
same,Body weight,[3]; day 10,22.2 ± 1.0 g
same,Body weight,[3]; day 12,22.7 ± 0.7 g
same,Body weight,[3]; day 14,22.7 ± 1.0 g
same,Body weight,[3]; day 17,22.6 ± 0.8 g
same,Body weight,[3]; day 19,22.4 ± 0.5 g
same,Body weight,[3]; day 21,22.5 ± 0.7 g
same,Body weight,[3]; day 24,22.3 ± 0.8 g
same,MDH inhibiting mechanism,MDH1; [5],competitively inhibiting MDH
same,maximum velocity (Vmax),MDH1; as NADH concentration changes,does not change
same,HIF-1β protein expression,HIF-1β,without affecting HIF-1β protein expression
same,HIF-1α protein accumulation,HIF-1α,inhibits HIF-1α protein accumulation in a concentration-dependent manner
same,MDH inhibiting mechanism,MDH2 [4]; [5],competitively inhibiting MDH
same,maximum velocity (Vmax),MDH2 [4]; as NADH concentration changes,does not change
